Where “and” joins values, the source holds several entries; their conditions need not be identical. Equal values may be shown once. Entries after “also recorded” stand apart in the source; their conditions may differ.
Key:
Type in all cases: cell-based, human
Design in all cases: key to Personalization Category: Personalization categories range from High, Good, Moderate, Low, to None; Personalization categories range from High, Good, Moderate, Low, to None; Personalization categories range from High, Good, Moderate, Low, to None; Personalization categories range from High, Good, Moderate, Low, to None; Personalization categories range from High, Good, Moderate, Low, to None; key to Sensitivity Category: Sensitivity categories range from High, Good, Moderate, Low, to None; Sensitivity categories range from High, Good, Moderate, Low, to None; Sensitivity categories range from High, Good, Moderate, Low, to None; Sensitivity categories range from High, Good, Moderate, Low, to None; Sensitivity categories range from High, Good, Moderate, Low, to None; AUC: unit not given beside the values
[1] = test system: patient-derived tumor organoids (PDTOs), pancreatic ductal adenocarcinoma; assay: Endoxifen screen in PDTOs: pancreatic ductal adenocarcinoma; details: each line one patient sample; for IC50: four-parameter logistic fit
Experimental: (§1) This example describes screening endoxifen in patient-derived tumor organoids. Endoxifen was tested as a single agent on tumor organoids derived from patients diagnosed with various cancer types using a personalized cancer treatment screening assay (PARIS© Test, SEngine Precision Medicine). The screen utilized patient-derived tumor organoids (PDTOs) along with high-throughput drug screening and machine learning-guided data analysis to quantify the efficacy of endoxifen against samples derived from individual patients diagnosed with various cancer types. PDTOs are self-organizing, three-dimensional organoid structures that recapitulate structural, functional, and genomic aspects of in vivo organs. The PDTOs were grown in culture from patient tumor biopsy samples.
(§2) Fresh patient biopsy samples received following surgery were cleaned and purified. Immune cells (e.g., lymphocytes, blood cells), cancer-associated fibroblasts, and other non-tumor cells were removed to establish pure PDTOs for endoxifen testing. The tumor organoids were grown and expanded by supplying organ- and patient-specific growth factors and nutrients. The PDTOs were treated with increasing concentrations of endoxifen ranging from about 30 nM to about 10 μM, and the drug response was measured using a luminescence readout. A lower luminescence was indicative of a stronger drug response.
(§3) The results were analyzed using a “SEngine Precision Medicine” (SPM) scoring system to assess the sensitivity and personalization of each tumor organoid to endoxifen. The SPM score correlates with clinical outcomes, such that a higher SPM score for a specific PDTO-drug combination predicts a more favorable clinical outcome following treatment of the corresponding patient with the tested drug.
(§4) This example describes testing endoxifen efficacy against 17 distinct cancer types in patient-derived tumor organoids (PDTOs). Screening of PDTOs was performed as described in EXAMPLE 1. For each PDTO sample, the drug response was measured using a luminescent readout over a range of endoxifen concentrations. The drug response was evaluated based on the area under the fitted dose response curve (AUC) and the SPM scoring system. AUC values were normalized for each PDTO. Briefly, data points at each drug concentration were first normalized to a negative control, then a dose response drug curve was approximated using a four-parameter logistic model fitted to the normalized data points. The area under the curve was calculated from the normalized curve. Normalization allowed for comparison of AUC values between patient samples. The SPM scores were based on machine learning models that incorporate values for how well the drug kill patient cells (sensitivity metric), the relative drug responses of a patient to all other patients in a sample database (personalization metric), and knowledge of clinical outcomes for patients that had been evaluated with the personalized cancer screening assay (PARIS® Test, SEngine Precision Medicine).
(§5) The SPM scoring system evaluated whether a PDTO was unresponsive or responsive to endoxifen and the degree of drug response for PDTOs that were responsive to endoxifen. The SPM scoring system generated metrics an SPM score, predictive of clinical outcome, overall drug response (response category), drug sensitivity (sensitivity category), and drug personalization (personalization category). SPM scores ranged from 1-15, corresponding to the following drug response categories: no response (SPM 1-8), low response (SPM 9), moderate response (SPM 10-11), good response (SPM 12-13), and exceptional response (SPM 14-15). […] Moderate to good drug responses (SPM 10-13) may indicate that a drug has clinical relevance, possibly in combination with other drugs. The sensitivity category was determined from the sensitivity metric and is a measure of overall cell death of a patient's cells in response to endoxifen at six concentrations. […]

[2] = test system: patient-derived tumor organoids (PDTOs), gastric cancer; assay: Endoxifen screen in PDTOs: gastric cancer; details: each line one patient sample
Experimental: as §1, §2, §3, §4, §5

[3] = test system: patient-derived tumor organoids (PDTOs), primary peritoneal carcinoma; assay: Endoxifen screen in PDTOs: primary peritoneal carcinoma
Experimental: as §1, §2, §3, §4
The SPM scoring system evaluated whether a PDTO was unresponsive or responsive to endoxifen and the degree of drug response for PDTOs that were responsive to endoxifen. […] The sensitivity category was determined from the sensitivity metric and is a measure of overall cell death of a patient's cells in response to endoxifen at six concentrations. […]

[4] = normalized area under fitted dose response curve

IC50 ([1]; Homo sapiens): 4.47 µM
IC50 [1]: 5.83 µM
IC50 ([2]; four-parameter logistic fit): 6.55 µM and 6.73 µM and 2.45 µM and 4.14 µM and 2.89 µM and 4.86 µM
IC50 ([3]; Homo sapiens, patient 72, four-parameter logistic fit): 9.37 µM
Structure (SMILES): CC/C(=C(\c1ccc(O)cc1)c1ccc(OCCNC)cc1)c1ccccc1 [Endoxifen, 4-hydroxy-N-desmethyltamoxifen]
Personalization Category [1]: Good and Low and None
Response Category [1]: Moderate (moderate response (SPM 10-11)); also recorded: Low (low response (SPM 9)); also recorded: None (no response (SPM 1-8))
Sensitivity Category [1]: Low and None
AUC [1, 4]: 0.8283 and 0.8839 and 1.1358
SPM Score ([1]; score range 1-15): 11 and 9 and 1
Personalization Category [2]: None and Low and High
Response Category [2]: None (no response (SPM 1-8)); also recorded: Low (low response (SPM 9)); also recorded: Good (good response (SPM 12-13)); also recorded: Moderate (moderate response (SPM 10-11))
Sensitivity Category [2]: Low and Moderate
AUC [2, 4]: 0.9503 and 0.8641 and 0.7529 and 0.8116 and 0.6723 and 0.8547
SPM Score ([2]; score range 1-15): 5 and 9 and 12 and 11 and 13 and 10
Personalization Category ([3]; patient 72): None
Sensitivity Category ([3]; patient 72): None
AUC ([3]; patient 72, normalized area under fitted dose response curve): 0.9623
SPM Score ([3]; patient 72, score range 1-15): 1
